Assay: Amounts of carbon dioxide absorption in test liquid (physical absorption, pressure-drop method)
Format: physicochemical
Conditions: 30° C.; for Amount of carbon dioxide absorption, not in coexistence of water a: 100% by mass of compound as test liquid; for Amount of carbon dioxide absorption, not in coexistence of water a / Amount of carbon dioxide absorption, in coexistence of water b: calculated via Henry's constant for P 3.0 MPa; for Amount of carbon dioxide absorption, in coexistence of water b: mixture of 90% by mass of compound and 10% by mass of water; for Carbon dioxide absorption ratio b/a: ratio of absorption in coexistence of water to not in coexistence of water, 3 MPa
Method: A 300-mL pressure-resistant container (A) connected to a carbon dioxide cylinder by piping, and a 150-mL pressure-resistant container were prepared, and amounts of carbon dioxide absorption were determined through a procedure of (i) to (iv) shown below. A regulator and a pressure gage were connected between the carbon dioxide cylinder and pressure-resistant container (A), and pressure-resistant container (A) and pressure-resistant container (B) were soaked in a water bath.
(i) The temperature of the water bath was set to 30° C., and pressure-resistant container (B) containing 50 mL of a test liquid was degassed under reduced pressure with a vacuum pump.
(ii) Pressure-resistant container (A) was filled with carbon dioxide depressurized to 0.20 MPa through the regulator, and the pressure at that time was measured. Thereafter, pressure-resistant container (A) and pressure-resistant container (B) were connected together, and the pressure after 1 hour was measured. Assuming that carbon dioxide in an amount corresponding to the reduction of pressure was absorbed in the test liquid, the amount in moles of adsorbed carbon dioxide per unit mass (mol/kg) was calculated.
(iii) The same operation as (ii) was performed at 0.35 MPa, 0.50 MPa, 0.60 MPa, and 0.80 MPa, and the Henry's constant, Hb (MPa·kg/mol), which indicates the pressure dependence of the amount in moles of adsorbed carbon dioxide (mol/kg), was calculated.
(iv) The amount of carbon dioxide absorption per unit mass of the test liquid (g/kg) was calculated from the following expression:
n: molar mass of carbon dioxide=44 (g/mol).
In the calculation, P (MPa) was 3.0 MPa, which is a representative condition for using physical absorption liquid.
For the case that an acidic gas removing agent (100% by mass of compound) was used as a test liquid (not in coexistence of water) and the case that a mixture of 90% by mass of the acidic gas removing agent (compound) and 10% by mass of water was used as a test liquid (in the coexistence of water), the amounts of carbon dioxide absorption in the test liquids were determined.
The carbon dioxide absorption ratio is the ratio (b/a) of the amount of carbon dioxide absorption per unit mass of a mixture of 90% by mass of an acidic gas removing agent and 10% by mass of water, b (g/kg), to the amount of carbon dioxide absorption per unit mass of the acidic gas removing agent, a (g/kg).

Compound | Amount of carbon dioxide absorption, not in coexistence of water a [g/kg] | Amount of carbon dioxide absorption, in coexistence of water b [g/kg] | Carbon dioxide absorption ratio b/a
CCCCOCC(C)OCC(C)OCC(C)OCC(C)O (stereo not drawn) [A-1] | 132 | 112 | 0.85
CCCCOCCOCC(C)OCC(C)OCC(C)O (stereo not drawn) [A-2] | 128 | 98 | 0.77
CC(O)COC(C)COC(C)COCC(C)OCC(C)OCC(C)OCC(C)O (stereo not drawn) [A-8] | 104 | 79 | 0.76
CCCCOCC(C)OCC(C)OCC(C)OCC(C)OCC(C)OCC(C)OCC(C)OC (stereo not drawn) [B-1] | 134 | 120 | 0.89
CCCCOCCOCC(C)OCC(C)OCC(C)OCC(C)OCC(C)OC (stereo not drawn) [B-2] | 157 | 140 | 0.89

Results, then the compound that gave them:

Amount of carbon dioxide absorption, not in coexistence of water a [g/kg] | Amount of carbon dioxide absorption, in coexistence of water b [g/kg] | Carbon dioxide absorption ratio b/a | Compound
149 | 134 | 0.90 | CCCCOCCOCCOCC(C)OCC(C)OCC(C)OCC(C)OCC(C)OC (stereo not drawn) [B-3]
142 | 128 | 0.90 | COC(C)COC(C)COC(C)COC(C)COC(C)COC(C)COCCOC(C)(C)C (stereo not drawn) [B-4]
129 | 120 | 0.93 | C=CCOCC(C)OCC(C)OCC(C)OCC(C)OCC(C)OCC(C)OCC(C)OC (stereo not drawn) [B-5]
144 | 122 | 0.85 | COC(C)COC(C)COC(C)COCC(C)OCC(C)OCC(C)OCC(C)OC (stereo not drawn) [B-6]
140 | 139 | 0.99 | COC(C)COC(C)COC(C)COC(C)COC(C)COC(C)COCCOCC(C)C (stereo not drawn) [B-7]
92 | 65 | 0.71 | CC(O)COC(C)COC(C)CO (stereo not drawn) [C-2, tripropylene glycol, reference compound]
72 | 56 | 0.78 | OCCCCOCCCCOCCCCO [C-3, PTMG250, reference compound]
